Results taken from patent publication US9212182B2, “Bicyclic sulfonamide compounds as sodium channel inhibitors” (AMGEN INC., priority 2013, dated 2015).
Where two headings read alike, the source gives them in different places.

Target: Nav 1.7 (Homo sapiens (Human), UniProt Q15858)
Assay: in-vitro Nav 1.7 PX (IC50)
Assay type: cell-based

Sequence of Nav 1.7 (Q15858 whole entry): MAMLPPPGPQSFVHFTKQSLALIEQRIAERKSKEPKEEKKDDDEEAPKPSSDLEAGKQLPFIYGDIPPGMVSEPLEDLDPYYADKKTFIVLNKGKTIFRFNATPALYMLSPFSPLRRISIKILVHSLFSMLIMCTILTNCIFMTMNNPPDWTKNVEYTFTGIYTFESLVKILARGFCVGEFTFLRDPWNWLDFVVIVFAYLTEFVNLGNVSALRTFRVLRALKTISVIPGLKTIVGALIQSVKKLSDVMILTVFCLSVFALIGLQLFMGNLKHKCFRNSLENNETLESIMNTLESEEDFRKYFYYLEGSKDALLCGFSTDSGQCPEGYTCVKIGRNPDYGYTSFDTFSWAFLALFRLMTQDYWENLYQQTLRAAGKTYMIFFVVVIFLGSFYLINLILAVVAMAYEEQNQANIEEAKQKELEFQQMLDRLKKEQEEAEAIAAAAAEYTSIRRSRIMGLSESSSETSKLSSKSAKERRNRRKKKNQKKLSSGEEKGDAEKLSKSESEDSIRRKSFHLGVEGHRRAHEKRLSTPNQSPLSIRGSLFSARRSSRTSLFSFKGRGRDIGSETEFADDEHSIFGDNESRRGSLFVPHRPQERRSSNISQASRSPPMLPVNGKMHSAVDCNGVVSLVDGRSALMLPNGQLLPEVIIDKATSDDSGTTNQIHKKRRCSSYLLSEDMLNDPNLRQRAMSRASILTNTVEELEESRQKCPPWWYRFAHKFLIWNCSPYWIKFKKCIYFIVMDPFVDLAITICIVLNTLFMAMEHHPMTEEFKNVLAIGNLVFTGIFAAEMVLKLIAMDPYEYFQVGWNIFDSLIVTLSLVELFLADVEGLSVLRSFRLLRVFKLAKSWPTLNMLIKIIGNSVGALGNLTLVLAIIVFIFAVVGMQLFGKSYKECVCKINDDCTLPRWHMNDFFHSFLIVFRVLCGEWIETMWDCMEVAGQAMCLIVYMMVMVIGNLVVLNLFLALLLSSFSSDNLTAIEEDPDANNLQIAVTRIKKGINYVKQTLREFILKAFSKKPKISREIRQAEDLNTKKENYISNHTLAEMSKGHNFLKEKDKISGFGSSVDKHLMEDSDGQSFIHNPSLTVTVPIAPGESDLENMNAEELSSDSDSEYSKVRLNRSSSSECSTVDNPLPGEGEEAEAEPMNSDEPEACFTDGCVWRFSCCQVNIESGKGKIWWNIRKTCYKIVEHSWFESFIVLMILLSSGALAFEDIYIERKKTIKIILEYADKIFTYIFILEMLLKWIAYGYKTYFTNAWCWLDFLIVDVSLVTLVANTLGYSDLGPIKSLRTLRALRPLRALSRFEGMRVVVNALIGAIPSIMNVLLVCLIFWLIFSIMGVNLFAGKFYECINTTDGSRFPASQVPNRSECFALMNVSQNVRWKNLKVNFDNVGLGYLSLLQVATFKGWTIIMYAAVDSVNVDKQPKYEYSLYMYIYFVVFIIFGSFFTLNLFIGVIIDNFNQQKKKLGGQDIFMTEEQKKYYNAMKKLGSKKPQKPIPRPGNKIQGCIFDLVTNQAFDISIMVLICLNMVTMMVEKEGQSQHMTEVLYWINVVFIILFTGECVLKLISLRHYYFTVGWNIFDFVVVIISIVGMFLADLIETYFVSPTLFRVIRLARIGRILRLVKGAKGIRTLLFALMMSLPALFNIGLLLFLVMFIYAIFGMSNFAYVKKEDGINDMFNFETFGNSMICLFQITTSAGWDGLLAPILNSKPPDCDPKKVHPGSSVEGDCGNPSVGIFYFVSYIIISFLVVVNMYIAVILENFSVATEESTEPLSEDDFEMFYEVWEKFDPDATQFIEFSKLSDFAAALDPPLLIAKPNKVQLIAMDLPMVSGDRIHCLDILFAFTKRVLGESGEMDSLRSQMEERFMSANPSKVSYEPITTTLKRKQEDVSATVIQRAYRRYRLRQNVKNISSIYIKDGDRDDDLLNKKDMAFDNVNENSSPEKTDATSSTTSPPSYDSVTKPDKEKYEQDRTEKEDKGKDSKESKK

COc1nc(C#CC2CCCC2)c(Cl)cc1-n1c(=O)ccc2cc(S(=O)(=O)Nc3cccnn3)ccc21 (atropisomer, axis not shown; (P)) [Example 1240, (P)-1-(5-chloro-6-(cyclopentylethynyl)-2-methoxy-3-pyridinyl)-2-oxo-N-3-pyridazinyl-1,2-dihydro-6-quinolinesulfonamide]
IC50: 124 nM

COc1ccc(-c2cncc(F)c2)cc1-n1c(=O)ccc2cc(S(=O)(=O)Nc3ccon3)ccc21 [Example 485, 1-(5-(5-fluoro-3-pyridinyl)-2-methoxyphenyl)-N-3-isoxazolyl-2-oxo-1,2-dihydro-6-quinolinesulfonamide]
IC50: 690 nM

COc1cc(-c2ccc(Cl)c(C)c2)c(F)cc1-n1c(=O)ccc2cc(S(=O)(=O)Nc3cscn3)ccc21 [Example 932, 1-(4′-chloro-2-fluoro-5-methoxy-3′-methyl-4-biphenylyl)-2-oxo-N-1,3-thiazol-4-yl-1,2-dihydro-6-quinolinesulfonamide]
IC50 (in-vitro Nav 1.7 PX data): 78 nM

COc1cc(-c2cc(F)cc(Cl)c2)c(C#N)cc1-n1c(=O)ccc2cc(S(=O)(=O)Nc3ccon3)ccc21 (atropisomer, axis not shown; (M)) [Example 434, (M)-1-(3′-chloro-2-cyano-5′-fluoro-5-methoxy-4-biphenylyl)-N-3-isoxazolyl-2-oxo-1,2-dihydro-6-quinolinesulfonamide]
IC50: 1840 nM

COc1cc(-c2cccc(C)c2)c(F)cc1-n1c(=O)ccc2cc(S(=O)(=O)Nc3ccon3)ccc21 (atropisomer, axis not shown; (M)) [Example 523, (M)-1-(2-fluoro-5-methoxy-3′-methyl-4-biphenylyl)-N-3-isoxazolyl-2-oxo-1,2-dihydro-6-quinolinesulfonamide]
IC50 (in-vitro PatchXpress (PX)): 4740 nM

COc1cc(Cl)cc(-c2cc(OC)c(-n3c(=O)ccc4cc(S(=O)(=O)Nc5ncco5)ccc43)cc2F)c1 [Example 926, 1-(3′-chloro-2-fluoro-5,5′-dimethoxy-4-biphenylyl)-N-1,3-oxazol-2-yl-2-oxo-1,2-dihydro-6-quinolinesulfonamide]
IC50 (in-vitro Nav 1.7 PX data): 6 nM

COc1ccc(-c2cccc(F)c2F)cc1-n1c(=O)ccc2cc(S(=O)(=O)Nc3ccon3)ccc21 [Example 848, 1-(2′,3′-difluoro-4-methoxy-3-biphenylyl)-N-3-isoxazolyl-2-oxo-1,2-dihydro-6-quinolinesulfonamide]
IC50 (in-vitro Nav 1.7 PX data): 118 nM

CCOc1cc(-c2cccc(F)c2)c(F)cc1-n1c(=O)ccc2cc(S(=O)(=O)Nc3ccon3)ccc21 (atropisomer, axis not shown; (M)) [Example 389, (M)-1-(5-ethoxy-2,3′-difluoro-[1,1′-biphenyl]-4-yl)-N-(isoxazol-3-yl)-2-oxo-1,2-dihydroquinoline-6-sulfonamide]
IC50: 239 nM

COc1cc(-c2cccc(C(F)(F)F)c2)c(F)cc1-n1c(=O)ccc2cc(S(=O)(=O)Nc3ccnc(C)n3)ccc21 [Example 804, 1-(2-fluoro-5-methoxy-3′-(trifluoromethyl)-4-biphenylyl)-N-(2-methyl-4-pyrimidinyl)-2-oxo-1,2-dihydro-6-quinolinesulfonamide]
IC50 (in-vitro Nav 1.7 PX data): 14 nM

COc1ccc(-c2cc(F)cc(Cl)c2)cc1-n1c(=O)ccc2cc(S(=O)(=O)Nc3cccnn3)ccc21 [Example 861, 1-(3′-chloro-5′-fluoro-4-methoxy-3-biphenylyl)-2-oxo-N-3-pyridazinyl-1,2-dihydro-6-quinolinesulfonamide]
IC50 (in-vitro Nav 1.7 PX data): 38 nM

COc1cc(F)ccc1-c1cc(OC)c(-n2c(=O)ccc3cc(S(=O)(=O)Nc4ccon4)ccc32)cc1F [Example 741, 1-(2,4′-difluoro-2′,5-dimethoxy-4-biphenylyl)-N-3-isoxazolyl-2-oxo-1,2-dihydro-6-quinolinesulfonamide]
IC50 (in-vitro Nav 1.7 PX data): 71 nM

COc1ccc(-c2cc(OC)c(-n3c(=O)ccc4cc(S(=O)(=O)Nc5ccon5)ccc43)cc2F)cc1 [Example 954, 1-(2-fluoro-4′,5-dimethoxy-4-biphenylyl)-N-3-isoxazolyl-2-oxo-1,2-dihydro-6-quinolinesulfonamide]
IC50 (in-vitro Nav 1.7 PX data): 71 nM

COc1cc(-c2ccc(OC)c(-n3c(=O)ccc4cc(S(=O)(=O)Nc5ccon5)ccc43)c2)ccc1F [Example 889, 1-(4′-fluoro-3′,4-dimethoxy-3-biphenylyl)-N-3-isoxazolyl-2-oxo-1,2-dihydro-6-quinolinesulfonamide]
IC50 (in-vitro Nav 1.7 PX data): 184 nM

COc1cc(-c2cccc(Cl)c2OC)ccc1-n1c(=O)ccc2cc(S(=O)(=O)Nc3ccon3)ccc21 [Example 815, 1-(3′-chloro-2′,3-dimethoxy-4-biphenylyl)-N-3-isoxazolyl-2-oxo-1,2-dihydro-6-quinolinesulfonamide]
IC50 (in-vitro Nav 1.7 PX data): 56 nM

COc1cc(-c2ccc(Cl)cc2)ccc1-n1c(=O)ccc2cc(S(=O)(=O)Nc3cccnn3)ccc21 [Example 765, 1-(4′-chloro-3-methoxy-4-biphenylyl)-2-oxo-N-3-pyridazinyl-1,2-dihydro-6-quinolinesulfonamide]
IC50 (in-vitro Nav 1.7 PX data): 112 nM

COc1cc(-c2cncc(Cl)c2)c(F)cc1-n1c(=O)ccc2cc(S(=O)(=O)Nc3ccon3)ccc21 (atropisomer, axis not shown; (M)) [Example 409, (M)-1-(4-(5-chloro-3-pyridinyl)-5-fluoro-2-methoxyphenyl)-N-3-isoxazolyl-2-oxo-1,2-dihydro-6-quinolinesulfonamide]
IC50 (in-vitro PatchXpress (PX)): 60 nM

COc1cc(-c2cnc(OC)c(Cl)c2)c(F)cc1-n1c(=O)ccc2cc(S(=O)(=O)Nc3ccon3)ccc21 [Example 740, 1-(4-(5-chloro-6-methoxy-3-pyridinyl)-5-fluoro-2-methoxyphenyl)-N-3-isoxazolyl-2-oxo-1,2-dihydro-6-quinolinesulfonamide]
IC50 (in-vitro Nav 1.7 PX data): 9 nM

COc1cc(-c2cnc(OC)c(Cl)c2)c(F)cc1-n1c(=O)ccc2cc(S(=O)(=O)Nc3cc(C)ncn3)ccc21 (atropisomer, axis not shown; (P)) [Example 1159, (P)-1-(4-(5-chloro-6-methoxy-3-pyridinyl)-5-fluoro-2-methoxyphenyl)-N-(6-methyl-4-pyrimidinyl)-2-oxo-1,2-dihydro-6-quinolinesulfonamide]
IC50 (in-vitro Nav 1.7 PX data, Table 4): 51 nM

COc1ccnc(-c2cc(OC)c(-n3c(=O)ccc4cc(S(=O)(=O)Nc5ccon5)ccc43)cc2F)n1 [Example 808, 1-(5-fluoro-2-methoxy-4-(4-methoxy-2-pyrimidinyl)phenyl)-N-3-isoxazolyl-2-oxo-1,2-dihydro-6-quinolinesulfonamide]
IC50 (in-vitro Nav 1.7 PX data): 3070 nM

COc1cc(-c2cncc(F)c2)c(F)cc1-n1c(=O)ccc2cc(S(=O)(=O)Nc3ccon3)ccc21 [Example 730, 1-(5-fluoro-4-(5-fluoro-3-pyridinyl)-2-methoxyphenyl)-N-3-isoxazolyl-2-oxo-1,2-dihydro-6-quinolinesulfonamide]
IC50 (in-vitro Nav 1.7 PX data): 795 nM

COc1cc(-c2cc(F)cc(C(F)(F)F)c2)ccc1-n1c(=O)ccc2cc(S(=O)(=O)Nc3ccnc(C)n3)ccc21 [Example 1100, 1-(3′-fluoro-3-methoxy-5′-(trifluoromethyl)-4-biphenylyl)-N-(2-methyl-4-pyrimidinyl)-2-oxo-1,2-dihydro-6-quinolinesiilfonamide]
IC50 (in-vitro Nav 1.7 PX data): 37 nM

COc1cc(-c2cccc(OC(C)C)c2)ccc1-n1c(=O)ccc2cc(S(=O)(=O)Nc3ccon3)ccc21 [Example 780, N-3-isoxazolyl-1-(3-methoxy-3′-(1-methylethoxy)-4-biphenylyl)-2-oxo-1,2-dihydro-6-quinolinesulfonamide]
IC50 (in-vitro Nav 1.7 PX data): 26 nM
